Reference: PubChem BioAssay (NCI)
“And” between values parts separate entries of the source, which are not always exact repeats. Identical values can stand only once.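 Compound exposure: 48 hours, 5 concentrations, 96-well plates. At the GI50, growth is halved. The concentration for full growth arrest is given as TGI.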

How the values were obtained:
Experiment in all cases: NCI-60 cell line screen, 48 h
SF-539 CNS = system: SF-539 CNS
CAKI-1 renal = system: CAKI-1 renal
HOP-62 NSCLC = system: HOP-62 NSCLC
SN12C renal = system: SN12C renal
A549 NSCLC = system: A549 NSCLC
NCI/ADR-RES ovarian = system: NCI/ADR-RES ovarian
HS 578T breast = system: HS 578T breast
MDA-MB-231 breast = system: MDA-MB-231 breast
T-47D breast = system: T-47D breast
SR leukemia = system: SR leukemia

## Cc1ccc2[nH]c3c(ncc4[nH]c5ccccc5c43)c2c1
SF-539 CNS
  TGI: 30.7 µM
CAKI-1 renal
  TGI: 31.6 µM
HOP-62 NSCLC
  TGI: > 10 µM
SN12C renal
  TGI: 30.2 µM
A549 NSCLC
  TGI: 32.7 µM

## Cc1c(NC(=O)OC[C@@H]2COCCN2)cn2ncnc(Nc3ccc4c(cnn4Cc4cccc(F)c4)c3)c12
SF-539 CNS
  GI50: > 10 µM and 11.3 µM
  TGI: > 10 µM and 25.2 µM
NCI/ADR-RES ovarian
  GI50: > 10 µM and 13.1 µM
  TGI: > 10 µM and 33.5 µM
CAKI-1 renal
  GI50: > 10 µM and 1.36 µM
  TGI: > 10 µM and 15.5 µM
HOP-62 NSCLC
  GI50: > 10 µM and 11.5 µM
  TGI: > 10 µM and 24.9 µM
HS 578T breast
  GI50: 2.32 µM and 5.49 µM
  TGI: > 10 µM and 52.2 µM
MDA-MB-231 breast
  GI50: 4.89 µM and 2.99 µM
  TGI: > 10 µM and 13.4 µM
SN12C renal
  GI50: > 10 µM and 3.32 µM
  TGI: > 10 µM and 20.4 µM
T-47D breast
  GI50: 1.36 µM and 1.14 µM
  TGI: 9.52 µM and 10.3 µM
A549 NSCLC
  GI50: > 10 µM and 8.26 µM
  TGI: > 10 µM and 21.5 µM

## CCC(C(=O)[O-])C(=O)[O-].CCC(C(=O)[O-])C(=O)[O-].N.N.NCCCCCCN.[Pt+4].[Pt+4]
SF-539 CNS
  GI50: 10.4 µM
  TGI: 21.7 µM
CAKI-1 renal
  GI50: 2.25 µM
  TGI: 4.97 µM
HOP-62 NSCLC
  GI50: 20.4 µM
  TGI: 50 µM
SN12C renal
  GI50: 8.66 µM
  TGI: 17.1 µM
SR leukemia
  GI50: 6.11 µM
  TGI: 35.4 µM
A549 NSCLC
  GI50: 10.8 µM
  TGI: 24.1 µM

## Cc1cc(C)c(S(=O)(=O)ONC(=O)OC(C)(C)C)c(C)c1
SF-539 CNS
  TGI: > 100 µM
CAKI-1 renal
  TGI: > 100 µM
HOP-62 NSCLC
  TGI: > 100 µM
SN12C renal
  TGI: > 100 µM
A549 NSCLC
  TGI: > 100 µM

## O=C(NNC(=O)c1cc(/C=C/c2cccc([N+](=O)[O-])c2)[nH]c(=S)n1)Nc1ccc(Cl)cc1
HOP-62 NSCLC
  TGI: > 100 µM
SN12C renal
  TGI: > 100 µM
SR leukemia
  TGI: 9.76 µM
A549 NSCLC
  TGI: > 100 µM

## Cc1nc(Nc2ccc([N+](=O)[O-])cc2)sc1C(/C=C/c1ccc(N(C)C)cc1)=N/NC(=O)c1ccccc1
SF-539 CNS
  TGI: > 100 µM
CAKI-1 renal
  TGI: > 100 µM
HOP-62 NSCLC
  TGI: > 100 µM
SN12C renal
  TGI: > 100 µM
SR leukemia
  TGI: > 100 µM
A549 NSCLC
  TGI: > 100 µM

## c1ccc(COCC2OC3c4ccccc4COC3C2OCc2ccccc2)cc1 (centres undefined)
SF-539 CNS
  TGI: > 100 µM
CAKI-1 renal
  TGI: > 100 µM
SN12C renal
  TGI: > 100 µM
SR leukemia
  TGI: > 100 µM
A549 NSCLC
  TGI: > 100 µM

## N#CC1(C=O)c2ccccc2C=CN1C(=O)c1ccccc1 (centres undefined)
CAKI-1 renal
  TGI: > 100 µM
SN12C renal
  TGI: > 100 µM
SR leukemia
  TGI: 66.5 µM
A549 NSCLC
  TGI: > 100 µM

## O=C([O-])c1ccc(C(=O)[O-])cc1.O=C([O-])c1ccc(C(=O)[O-])cc1.[Mo+2].[Mo+2]
SF-539 CNS
  GI50: > 100 µM
  TGI: > 100 µM
CAKI-1 renal
  GI50: > 100 µM
  TGI: > 100 µM
SN12C renal
  GI50: > 100 µM
  TGI: > 100 µM
SR leukemia
  GI50: > 100 µM
  TGI: > 100 µM
A549 NSCLC
  GI50: > 100 µM
  TGI: > 100 µM

## O=C1/C(=C/c2ccccc2)CN(C(=O)OCc2ccccc2)C/C1=C\c1ccccc1
SF-539 CNS
  TGI: 30.9 µM
CAKI-1 renal
  TGI: > 31.6 µM
HOP-62 NSCLC
  TGI: 39.9 µM
HS 578T breast
  TGI: 10.1 µM
MDA-MB-231 breast
  TGI: 50.4 µM
SN12C renal
  TGI: 22.7 µM
SR leukemia
  TGI: 12.3 µM
T-47D breast
  TGI: > 100 µM
A549 NSCLC
  TGI: > 46.4 µM

## Cn1c2c(c3ccccc31)CCN(CCCCN1CCN(c3cccc(Cl)c3)CC1)C2=O
SF-539 CNS
  TGI: 26.5 µM
CAKI-1 renal
  TGI: > 100 µM
HOP-62 NSCLC
  TGI: 30.7 µM
SN12C renal
  TGI: 25.8 µM
A549 NSCLC
  TGI: 70.2 µM

## CC(=O)[O-].O=C([CH-]C(=O)c1ccccc1)c1ccccc1.O=C([CH-]C(=O)c1ccccc1)c1ccccc1.[Y+3]
SF-539 CNS
  GI50: 8.67 µM
  TGI: 37 µM
CAKI-1 renal
  GI50: 4.53 µM
  TGI: 19.4 µM
HOP-62 NSCLC
  GI50: 2.31 µM
  TGI: 13.4 µM
SN12C renal
  GI50: 6.23 µM
  TGI: 38 µM
A549 NSCLC
  GI50: 10.3 µM
  TGI: 34.3 µM

## O=C1C2c3[nH]c4ccccc4c3[C@@H]3CCCCC3C2C(=O)N1c1ccccc1 (some centres undefined)
SN12C renal
  TGI: 32.4 µM
SR leukemia
  TGI: 77.8 µM
A549 NSCLC
  TGI: > 100 µM

## O=C(CC(=O)C1CCOC1=O)C(=O)Nc1ccc(Cl)cc1Cl (centres undefined)
SF-539 CNS
  TGI: > 100 µM
CAKI-1 renal
  TGI: > 100 µM
HOP-62 NSCLC
  TGI: > 100 µM
SN12C renal
  TGI: > 100 µM
A549 NSCLC
  TGI: > 100 µM

## O=C(NCCCCCCCCNC(=O)c1cccc2ccccc12)c1cccc2ccccc12
SF-539 CNS
  TGI: 34 µM
NCI/ADR-RES ovarian
  TGI: > 100 µM
CAKI-1 renal
  TGI: 52.8 µM
HOP-62 NSCLC
  TGI: 13.5 µM
SN12C renal
  TGI: > 100 µM
SR leukemia
  TGI: > 100 µM
A549 NSCLC
  TGI: > 100 µM

## CCCCCCCCCCCCN(O)C(=O)c1ccccc1
SF-539 CNS
  TGI: 63.6 µM
SN12C renal
  TGI: 71.4 µM
SR leukemia
  TGI: > 100 µM
A549 NSCLC
  TGI: > 100 µM

## CN(C)c1ccc(/C=N\N2C(=O)c3ccccc3C2=O)cc1
SF-539 CNS
  TGI: > 100 µM
CAKI-1 renal
  TGI: > 100 µM
HOP-62 NSCLC
  TGI: > 100 µM
SN12C renal
  TGI: > 100 µM
SR leukemia
  TGI: > 100 µM
A549 NSCLC
  TGI: > 100 µM

## CC/C(C)=C1\OC(=O)C(C)C(O)C(Cc2cccnc2)NC(=O)C(NC(=O)c2ncccc2O)C(C)OC1=O (centres undefined)
SF-539 CNS
  TGI: > 100 µM
CAKI-1 renal
  TGI: > 100 µM
HOP-62 NSCLC
  TGI: > 100 µM
HS 578T breast
  TGI: > 100 µM
MDA-MB-231 breast
  TGI: > 100 µM
SN12C renal
  TGI: > 100 µM
SR leukemia
  TGI: > 100 µM
T-47D breast
  TGI: > 100 µM
A549 NSCLC
  TGI: > 100 µM

## CCOC(=O)NC(=O)c1cn(CCN2CCN(C(=O)CCCCCCCCCCNc3ncnc4nc[nH]c34)CC2)c(=O)[nH]c1=O
SF-539 CNS
  TGI: > 100 µM
CAKI-1 renal
  TGI: > 100 µM
HOP-62 NSCLC
  TGI: > 100 µM
SN12C renal
  TGI: > 100 µM
SR leukemia
  TGI: > 100 µM
A549 NSCLC
  TGI: > 100 µM

## COC12CC(=O)C(C(C)=O)=C(O)C1(C)c1c(OC(C)=O)c(C)c(O)c(C(C)=O)c1O2 (centres undefined)
SF-539 CNS
  TGI: > 100 µM
CAKI-1 renal
  TGI: 54.1 µM
HOP-62 NSCLC
  TGI: 95.8 µM
SN12C renal
  TGI: 64.7 µM
SR leukemia
  TGI: > 100 µM
A549 NSCLC
  TGI: > 100 µM
